The record followed here is patent US7595330B2, “Benzimidazole thiophene compounds” (SmithKline Beecham Corporation, priority 2005, dated 2009).

pIC50: −log10 of the molar value.

One data set has as its system HCT116. The experiment in a line: Methylene blue growth inhibition assay, HCT116. In kind it is cell-based. The note with it: Homo sapiens, HCT-116; methylene blue, 72 h, HCT116; read-out: HCT116 IC50. How it is done: (§1) II. Methylene Blue Growth Inhibition Assay—Inhibition of Cell Proliferation by PLK1 Inhibitors
(§2) Generally, exponentially growing cell lines of different tumor origins, cultured in appropriate media containing 10% fetal bovine serum at 37° C. in a 5% CO2 incubator were plated at low density (less than 2000 cells/well) in 96-well plates. […]. Seventy two hours post-treatment, cell numbers were determined using 100 μl per well of methylene blue (Sigma M9140) (0.5% in 50:50 Ethanol:water). Stain was incubated at room temperature for 30 minutes before plates were rinsed and dye solubilized in 1% N-lauroyl sarcosine, sodium salt, (Sigma L5125, in PBS) (further details of a methylene blue assay are described below). Plates were read on a microplate reader, measuring the OD at 620 nm.
(§3) . The data are shown in Table 1 below and represent a compilation of several different experiments, each performed using the general parameters outlined above, although minor variations may have been employed in some instances.
(§4) In one assay, normal human foreskin fibroblasts (HFF), human colon (HCT116, RKO), lung (H460, A549) and breast (MCF7) tumor cell lines were cultured in high glucose DMEM (Life Technologies) containing 10% fetal bovine serum (FBS) at 37° C. in a humidified 5% CO2, 95% air incubator. Cells were harvested using trypsin/EDTA, counted using a haemocytometer, and plated in 100 μL of culture media per well, at the following densities, in a 96-well tissue culture plate (Falcon 3075): HFF 5,000 cells/well, HCT116 3,000 cells/well, RKO 2,500 cells/well, H460 2,500 cells/well, A549 5,000 cells/well, MCF7 4,000 cells/well. The next day, compounds were diluted in low glucose DMEM containing 100 μg/mL gentamicin, at twice the final required concentration, from 10 mM stock solutions in DMSO. 100 μL/well of these dilutions were added to the 100 μL of media currently in the assay plates. Medium containing 0.6% DMSO was added to control wells. The final concentration of DMSO in all wells was 0.3%. Cells were incubated at 37° C., 5% CO2 for 72 h. Medium was removed by aspiration. Cell biomass was estimated by staining cells with 80 μL per well methylene blue (Sigma M9140, 0.5% in 50:50 ethanol:water), and incubation at room temperature for 30-60 min. Stain was removed by aspiration and the plates rinsed by immersion in water, then air-dried. To release stain from the cells, 100 μL of solubilization solution was added (1% N-lauroyl sarcosine, Sodium salt, Sigma L5125, in PBS), and plates were shaken gently for about 30 min. Optical density at 620 nm was measured on a microplate reader. Percent inhibition of cell growth was calculated relative to vehicle treated control wells. […].

In another data set the test system is H460. Briefly: Methylene blue growth inhibition assay, H460. The format is cell-based. As to conditions: Homo sapiens, NCI-H460; methylene blue, 72 h, H460; read-out: H460 IC50. How it is done: as §1, §2, §3, §4
The next data set concerns human plasma proteins. The experiment in a line: Protein binding to human plasma proteins using equilibrium dialysis. As to conditions: pH 7.4, equilibrium dialysis 6 h, 37° C. In kind it is in vitro ADME. How it is done: III. Determination of Protein Binding to Human Plasma Proteins Using Equilibrium Dialysis
96 Well Plate (High Throughput Dialysis): Stock solutions of compounds were spiked into human plasma at a target concentration of 2000 ng/mL. The mixture was inverted gently several times to insure homogeneity and triplicate 50 μL aliquots were collected to verify initial concentrations. Following assembly of dialysis plate (HTDialysis membrane strips, molecular weight cut off limit of 12,000-14,000 daltons), spiked plasma (150 μL) was placed in the donor compartment of the well and Phosphate Buffered Saline pH 7.4 (150 μL) in the receiver compartment. Eight wells were set up per compound and plasma type. Plate was placed in a 37° C. incubator on a plate shaker. Following the 6 h incubation period, the plate was removed. Single 50 μL aliquots from each donor and receiver compartment (per well) were analyzed. Sample analysis was by LC/MS/MS (results reported as Drug Peak Area/Internal Standard Peak Area ratios). Protein binding assay can also be performed using dialysis cells instead of HT Dialysis 96 well plates. In Table 1, % Protein Binding, +=>98%; ++=95-98%: +++=<95%.
Background: In equilibrium dialysis free small molecules cross a membrane that holds back macromolecules.

Another data set concerns MCF7. The experiment in a line: Methylene blue growth inhibition assay, MCF7. As to conditions: Homo sapiens; methylene blue, 72 h, MCF7; read-out: MCF7 IC50. In kind it is cell-based. How it is done: as §1, §2, §3, §4
Data set [1] in a line: High throughput solubility assay. The note with it: aqueous buffer, pH 7.4, 0.05M phosphate buffer. In kind it is physicochemical. As to the method:
IV. High Throughput Solubility Assay
Two samples are prepared for each compound. One (the standard sample) contains the compound at a fixed concentration of 20 μM in an aqueous/organic mixed solvent cocktail. The other (the test sample) contains the compound at a maximum concentration of 200 μM in pH 7.4, 0.05M phosphate buffer and shaking for 24 h. The test sample is filtered by 0.45μ filter and then spun for 10 min to remove any undissolved solid. HPLC analyses are preformed on these samples. The peak areas are used for computing solubility.

The subject of another data set is RKO. Briefly: Methylene blue growth inhibition assay, RKO. As to conditions: Homo sapiens, methylene blue, 72 h, read-out: RKO IC50. The format is cell-based. How it is done: as §1, §2, §3, §4
The next data set relates to A549. Briefly: Methylene blue growth inhibition assay, A549. The format is cell-based. The note with it: Homo sapiens; methylene blue, 72 h, A549; read-out: A549 IC50. As to the method: as §1, §2, §3, §4
For data set [2], the system named is normal human foreskin fibroblasts (HFF). Briefly: Methylene blue growth inhibition assay, HFF. In kind it is cell-based. As to conditions: Fibroblast, methylene blue, 72 h, HFF normal fibroblasts, read-out: HFF IC50. As to the method:
as §1, §2, §3, §4

The target in the next data set is T1, PLK1 kinase domain (Homo sapiens, UniProt P53350).
T1 construct: made in house; host or cells: baculovirus infected T. ni cells
Briefly: Assay for inhibition of PLK1 (SPA, 33P-ATP, biotinylated peptide substrate). In kind it is biochemical. As to conditions: 1 μM ATP, 2 nM PLK1 kinase domain; read-out: PLK1 pIC50 (converted). How it is done:
I. Assay for Inhibition of PLK1
All procedures were performed at 4° C. Cells were lysed in 50 mM HEPES, 200 mM NaCl, 50 mM imidazole, 5% glycerol; pH 7.5. The homogenate was centrifuged at 14K rpm in a SLA-1500 rotor for 1 h and the supernatant filtered through a 1.2 micron filter. The supernatant was loaded onto a Nickel chelating Sepharose (Amersham Pharmacia) column and washed with lysis buffer. Protein was eluted using 20%, 30% and 100% buffer B steps where buffer B is 50 mM HEPES, 200 mM NaCl, 300 mM imidazole, 5% glycerol; pH 7.5. Fractions containing PLK were determined by SDS-PAGE. Fractions containing PLK were diluted five-fold with 50 mM HEPES, 1 mM DTT, 5% glycerol; pH 7.5, then loaded on an SP Sepharose (Amersham Pharmacia) column. After washing the column with 50 mM HEPES, 1 mM DTT, 5% glycerol; pH 7.5, PLK was step eluted with 50 mM HEPES, 1 mM DTT, 500 mM NaCl; 5% glycerol; pH 7.5. PLK was concentrated using a 10 kDa molecular weight cutoff membrane and then loaded onto a Superdex 200 gel filtration (Amersham Pharmacia) column equilibrated in 25 mM HEPES, 1 mM DTT, 500 mM NaCl, 5% glycerol; pH 7.5. Fractions containing PLK were determined by SDS-PAGE. PLK was pooled, aliquoted and stored at −80° C. Samples were quality controlled using mass spectrometry, N-terminal sequencing and amino acid analysis.
B. Enzyme activity +/− inhibitors was determined as follows: All measurements were obtained under conditions where signal production increased linearly with time and enzyme. Test compounds were added to white 384-well assay plates (0.1 μL for 10 μL and some 20 μL assays, 1 μL for some 20 μL assays) at variable known concentrations in 100% DMSO. DMSO (1-5% final, as appropriate) and EDTA (65 mM in reaction) were used as controls.
Reaction Mix (10 or 20 μL) was quickly added to each well immediately following addition of enzyme via automated liquid handlers and incubated 1-1.5 h at 22° C. The 20 μL enzymatic reactions were stopped with 50 μL of stop mix (50 mM EDTA, 4.0 mg/ml Streptavidin SPA beads in Standard Dulbecco's PBS (without Mg^2+ and Ca^2+), 50 μM ATP) per well. The 10 μL reactions were stopped with 10 μL of stop mix (50 mM EDTA, 3.0 mg/mL Streptavidin-coupled SPA Imaging Beads (“LeadSeeker”) in Standard Dulbecco's PBS (without Mg^2+ and Ca^2+), 50 μM ATP) per well. Plates were sealed with clear plastic seals, spun at 500×g for 1 min or settled overnight, and counted in Packard TopCount for 30 seconds/well (regular SPA) or imaged using a Viewlux imager (LeadSeeker SPA). Signal above background (EDTA controls) was converted to percent inhibition relative to that obtained in control (DMSO-only) wells.

T1 sequence (P53350 21-346): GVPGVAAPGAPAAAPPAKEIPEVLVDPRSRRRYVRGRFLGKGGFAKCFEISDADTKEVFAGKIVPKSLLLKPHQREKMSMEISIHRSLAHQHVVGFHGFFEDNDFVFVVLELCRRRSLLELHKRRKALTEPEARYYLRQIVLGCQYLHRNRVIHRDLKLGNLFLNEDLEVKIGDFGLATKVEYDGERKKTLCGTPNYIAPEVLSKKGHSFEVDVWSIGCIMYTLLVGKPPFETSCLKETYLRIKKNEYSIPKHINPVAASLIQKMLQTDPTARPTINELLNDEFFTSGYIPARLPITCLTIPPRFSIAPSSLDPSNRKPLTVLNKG

For the molecule `NC(=O)c1sc(-n2cnc3ccc(OCC4CCNCC4)cc32)cc1OCc1ccccc1C(F)(F)F` [Com. Ex 143, reference compound], the pIC50 (in general, the negative decadic logarithm of the IC50, by convention in mol/L) in the data set with HCT116 was 6.00 to 7.00; in the data set on H460 it was less than 6.00; in the data set with MCF7, 6.00 to 7.00; in the data set on RKO it was 6.00 to 7.00; in the data set with A549 it was less than 6.00; in data set [2] it was less than 6.00. For the same molecule, the fraction unbound – broadly, the share of the substance not bound to proteins or other matrix – at 6 h, 2000 ng/mL with human plasma proteins was more than 0.05. In addition, in [1], the solubility – broadly, the concentration that dissolves in the medium under given conditions – at 24 h was less than 30 µM. The IC50 on PLK1 kinase domain is 10 to 1000 nM.

Turning to `C[C@@H](Oc1cc(-n2cnc3ccc(CS(C)(=O)=O)cc32)sc1C(N)=O)c1ccccc1C(F)(F)F` [Example 1, 5-{6-[(Methylsulfonyl)methyl]-1H-benzimidazol-1-yl}-3-({(1R)-1-[2-(trifluoromethyl)phenyl]ethyl}oxy)-2-thiophenecarboxamide], the negative logarithm of the IC50 (pIC50) in the data set with HCT116 was more than 7.00; in the data set with H460, more than 7.00; in the data set with MCF7, more than 7.00; with RKO, more than 7.00; in the data set with A549 it was more than 7.00; in [2], 6.00 to 7.00. Also, the fraction unbound at 6 h, 2000 ng/mL in the data set with human plasma proteins was 0.02 to 0.05. Further, the solubility at 24 h in data set [1] lay within 30 to 100 µM. The IC50 at PLK1 kinase domain is less than 10 nM.

Take `C[C@@H](Oc1cc(-n2cnc3ccc(CS(C)(=O)=O)cc32)sc1C(N)=O)c1ccccc1Cl` [Example 2, 3-{[(1R)-1-(2-Chlorophenyl)ethyl]oxy}-5-{6-[(methylsulfonyl)methyl]-1H-benzimidazol-1-yl}-2-thiophenecarboxamide]: the pIC50 in the data set on HCT116 is more than 7.00; in the data set with H460, more than 7.00; in the data set with MCF7, more than 7.00; in the data set on RKO it was more than 7.00; in the data set with A549 it was more than 7.00; in [2] it was 6.00 to 7.00. In addition, in the data set on human plasma proteins, the fraction unbound at 6 h, 2000 ng/mL lay in the range of 0.02 to 0.05. The solubility at 24 h in data set [1] fell in the range of 30 to 100 µM. Moreover, the IC50 on PLK1 kinase domain was less than 10 nM.
